Consider 2 compounds from US20250319094A1, “COMPOSITION FOR PREVENTING OR TREATING ATOPIC DERMATITIS” (Yonsei University BioHealth Technology Holdings, Inc., priority 2022, published 2025).

The test system of one data set is flaky tail mice. The data set is described as follows: Chronic itch behavior before and after application of test drug. The class given is in vivo, mouse. The note with it: drug 3 times a week for 4 weeks after 4 weeks HDM; before vs after application. As for the experimental part: Additional experiments were performed to compare the ITCH behavior before and after application of the dexamethasone, tacrolimus, and bentamapimod agents disclosed above. Specifically, atopic dermatitis was induced by applying 100 mg of HDM ointment to the backs of flaky tail mice for 4 weeks, after which drug treatments were applied 3 times a week for 4 weeks, and the chronic itch behavior before and after application of these test drugs was quantified and graphed (see FIG. 9a and FIG. 9b).

The test system of data set [1] is skin-specific T cells. The data set is described as follows: Flow cytometry of skin T cells from atopic dermatitis patient skin after drug application. The note with it: immune cell fractions from skin tissue of atopic dermatitis patients. The class given is cell-based, human. As for the experimental part:
To test the effect of the candidate drug on skin-specific T cells in human skin tissue, a single suspension was prepared using skin from a patient with atopic dermatitis. T cells were stained using anti-CD3, anti-CD4, anti-CD8, and anti-CD45 antibodies, and flow cytometry was performed on skin T cells using the skin TRM markers CD69 and CD103 to observe changes in the number and distribution of skin-specific T cells in response to drug application.
Background: In flow cytometry, cells or beads pass a laser one at a time.

For data set [2], the system named is atopic dermatitis-induced flaky tail mice. The data set is described as follows: Acute wiping (pain) and scratching (itching) behavior after drug application. The class given is in vivo, mouse. From the text:
The existing drug dexamethasone is widely used as a treatment for atopic dermatitis, but long-term use causes various local side effects such as skin atrophy, dilated skin capillaries, and hypopigmented spots. Tacrolimus, which was developed to minimize these long-term local side effects, solved the problem of long-term and permanent local side effects of steroid drugs, but short-term skin irritation symptoms are emerging as a new problem, as it is known that about 50% of patients experience burning and skin rash at the beginning of application. Therefore, it is necessary to overcome the skin irritation side effects, and we wanted to check whether the newly discovered drug of bentamapimod can resolve the above side effects while maintaining the effectiveness of the animal drug through behavioral analysis of pain and itching using Flaky Tail mice. Wiping the face with the forelegs was interpreted as a behavioral measure of pain in mice, and scratching with the hind legs was interpreted as a behavioral measure of itching (J Vis Exp. 2019 Sep. 27; (151)). […] Flaky tail mice were treated with 200 μL of the test agent per group for one week to facilitate comparison, and the number of itches and pain behaviors were quantified and graphed (see FIG. 8a and FIG. 8b).

In a further data set the test system is normal skin tissue. Put plainly: Cell viability (CCK-8) cytotoxicity on normal skin tissue cells. Conditions: overnight. The format is cell-based. As for the experimental part:
We sought to determine the optimal concentration of the drug Bentamapimod identified above that would not affect the cytotoxicity of the drug. To determine the final concentration of the drug, normal skin tissue was seeded as cells in […] 96-well plates using 5% (v/v) RPMI1640 medium (LONZA) and 1% penicillin/streptomycin medium and treated with bentamapimod at concentrations of 1 μM, 10 μM, 50 μM, 100 μM, and 200 μM, respectively, and incubated overnight in a 37° C. incubator. Then, 10 μl of Cell Counting Kit-8 drug (Dojindo Lot. PR863) was seeded into 96-well plates and the absorbance was measured at […] after 2 h.

For data set [3], the system named is skin-specific T cells. Put plainly: Flow cytometry of T cell fractions in skin of atopic dermatitis mouse model. The class given is in vivo. The note with it: 4 weeks. Here is the method: (§1) To test the effect of the newly discovered bentamapimod drugs on skin-specific T cells, flaky tail mice were induced with atopic skin lesions using HDM three times a week until week 4 of the experiment as described in the Preparations and Examples above, and then treated with each drug at different concentrations for another 4 weeks. To determine changes in skin-specific T cells in each animal, single suspensions were then prepared from spleen, skin, and lymph nodes, and T cells were stained with anti-CD3, anti-CD4, anti-CD8, and anti-CD45 antibodies. Flow cytometric analysis of skin-specific T cells was performed using anti-CD69 and anti-CD103 antibodies to observe changes in the number and distribution of skin-specific T cells in response to drug application.

Data set [4] relates to T cells in skin-draining lymph nodes. The data set is described as follows: FACS of T cell fractions in skin-draining lymph nodes of atopic dermatitis mouse model. The class given is in vivo. Here is the method:
as §1

Data set [5] concerns atopic dermatitis-induced flaky tail mice. Put plainly: Treatment effect in HDM-induced atopic dermatitis mouse model (clinical photograph, dermatitis score). The class given is in vivo. Conditions: 50 μM or 100 μM, 200 μL on back, 4 weeks. As for the experimental part: The backs of the mice were shaved and exfoliated with a 4% diluted sodium dodecyl sulfate solution (SIGMA Lot #BCCD5615) once every 3 days to remove dead skin cells, and House Dust Mite (HDM), a typical trigger/exacerbator of atopic dermatitis, was topically applied to the mice to induce atopic skin lesions. The house dust mite ointment used was Atopic dermatitis challenging ointment from Biostir (Osaka, Japan), and atopic dermatitis-induced mice were prepared as described above (see FIG. 1).
In order to determine whether the bentamapimod drug discovered above has a therapeutic effect on atopic dermatitis, experiments were conducted using the mouse model prepared in the preliminary example and divided into control and experimental groups according to the timeline diagram shown in FIG. 4. […] To further verify the treatment effect, the flaky tail Mice dermatitis score of the atopic dermatitis mouse model according to the drug treatment was calculated by Wilcoxon-signed rank test and shown in FIG. 6. […]

For data set [6] the following is noted: at the beginning of application; cited from earlier work.

Consider `N#CC(c1ccnc(OCc2ccc(CN3CCOCC3)cc2)n1)c1nc2ccccc2s1` (stereo not drawn) [bentamapimod, α-[2-[[4-(4-morpholinylmethyl)phenyl]methoxy]-4-pyrimidinyl]-2-benzothiazoleacetonitrile], for which the “chronic scratching behavior, treatment effect” value in the data set with flaky tail mice is given as “treatment effect was particularly significant”. Besides, the “percentage of skin-specific T cells” value in the data set with skin-specific T cells [1] (50 μM) and with skin-specific T cells [1] (100 μM) was “significant dose-dependent decrease” in each case. For the same compound, the “local irritation symptoms such as itching and pain” value in data set [2] (50 μM and 100 μM) is “did not cause local irritation symptoms”. The “number of scratching and wiping behaviors versus control D.W group” value in data set [2] (50 μM, 200 μL on back) is “no difference”; in data set [2] (100 μM, 200 μL on back), “no difference”. Besides, the cell viability entry with normal skin tissue (50 μM) and in the data set on normal skin tissue (100 μM) was “greater than 90%” throughout. The “percentage of CD3+, CD4+ T cells in the skin” value with skin-specific T cells [3] (50 μM) and in the data set on skin-specific T cells [3] (100 μM) was “significantly reduced in a dose-dependent manner” each time. Further, in the data set on skin-specific T cells [3] (skin), the “percentage of CD69+ T cells and CD103+ T cells (skin-resident T cells)” value is reported as “significantly reduced”. Also, the “percentage of skin-specific T cells compared to the control 0.1% dexamethasone group” value with skin-specific T cells [3] (skin) was “significantly reduced”. Further, in data set [4] (100 μM), the “CD3+ T cells in skin-draining lymph nodes” value is “statistically significantly lower”. For the same compound, the “CD3+ CD4+ CD69+ CD103+ T cells” value in data set [4] (100 μM, skin-draining lymph nodes) is “statistically significantly lower”. Also, the “fraction of T cells expressing CD69 among CD3+ CD4+ T cells” value in data set [4] (skin-draining lymph nodes) is “reduced”. The “percentage of T cells compared to the 0.1% dexamethasone group” value in data set [4] (skin-draining lymph nodes) is “significantly reduced”. The “atopic dermatitis scores (Flaky tail Mice dermatitis score)” value in data set [5] (FIG. 6) is “equivalent to or better than those of conventional drugs”. Further, the “treatment effect on atopic dermatitis skin lesions (wounding, dryness, desquamation, erythema, hemorrhage, edema)” value in data set [5] (compared to conventional drugs, FIG. 5) is reported as “clinically significant treatment effect”.

In the case of `C=CC[C@@H]1/C=C(\C)C[C@H](C)C[C@H](OC)[C@H]2O[C@@](O)(C(=O)C(=O)N3CCCC[C@H]3C(=O)O[C@H](/C(C)=C/[C@@H]3CC[C@@H](O)[C@H](OC)C3)[C@H](C)[C@@H](O)CC1=O)[C@H](C)C[C@@H]2OC` [tacrolimus], the “time at which wiping behaviors peaked” value in data set [2] (0.1% concentration, 200 μL on back) came to 30 min. Besides, the “number of scratching behaviors” value in data set [2] (0.1% concentration, 200 μL on back, in 30 minutes) came to 17 times. The “patients who experience burning and skin rash” value in data set [6] is on record as “about 50%”.
